Like-named read-outs stand apart in the source and are kept apart here.
Experiments:
[1] = tested on: stomach emptying; assay: Stomach emptying in the rat (stomach emptying index, glass beads), oral route; type: in vivo; design: key: index computed from beads emptied by treated (nx) vs control (nc) rats
Procedure: Stomach emptying in the rat, administering compounds via the oral (0.1-1 mg/Kg) and intraperitoneal routes (1-10 mg/Kg), (see Jacoby, H. I. and Brodie, D. A., Gastroenterol. 52, 676-684, 1967).
A stomach emptying index was calculated as follows:
40 Glass beads (diam.perspectiveto.1 mm) administered to each rat after dosing with the test compounds at 0.1, 0.3 and 1 mg/Kg p.o. Results calculated according to the formulae: [formula] where: nc =the number of beads empited by control animals.
nx =the number of beads emptied by treated animals.
SEI=Stomach emptying index [formula]

[2] = target: T1, central and peripheral D2 (DA2)--dopamine receptors (Canis lupus familiaris, UniProt Q9GJU1); assay: Apomorphine-induced emesis in the dog, intravenous route; type: in vivo
T1 construct: Apomorphine-induced emesis in the dog, administering compounds via the intravenous route; from tissue; host or cells: whole living dog (in vivo, intravenous dosing)
Procedure: The pharmacological screening for undesirable effects upon central and peripheral D2 (DA2)--dopamine receptors was carried out using the following tests: 3. […] (see […]., High, […]., Burke, J. C. and […]. Exp. Therap., 127, 55-65, 1959).

[3] = target: T2, central and peripheral D2 (DA2)--dopamine receptors (Rattus norvegicus, UniProt P61169); assay: Apomorphine-induced stereotyped behaviour in the rat, intraperitoneal route; type: in vivo
T2 construct: Apomorphine-induced stereotyped behaviour in the rat, administering compounds via the intraperitoneal route; from tissue; host or cells: whole living rat (in vivo, intraperitoneal dosing)
Procedure: The pharmacological screening for undesirable effects upon central and peripheral D2 (DA2)--dopamine receptors was carried out using the following tests:
2. […]. (see Janssen, P. A. J., Niemegeers, C. J. E. and Jageneau, A. H. Arzneim. Forsch. 10, 1003-1005, 1960).

[4] = tested on: dopamine receptors in the striatum and hypophysis; settings: cited from earlier work
[5] = Table 1, 0.1, 0.3 and 1 mg/Kg p.o.
[6] = Table 2 (with aromatic compounds), 0.1, 0.3 and 1 mg/Kg p.o.
[7] = Table 2 (with aromatic compounds)
[8] = Table 2 (with aromatic compounds), ip

T2 sequence (P61169 whole entry): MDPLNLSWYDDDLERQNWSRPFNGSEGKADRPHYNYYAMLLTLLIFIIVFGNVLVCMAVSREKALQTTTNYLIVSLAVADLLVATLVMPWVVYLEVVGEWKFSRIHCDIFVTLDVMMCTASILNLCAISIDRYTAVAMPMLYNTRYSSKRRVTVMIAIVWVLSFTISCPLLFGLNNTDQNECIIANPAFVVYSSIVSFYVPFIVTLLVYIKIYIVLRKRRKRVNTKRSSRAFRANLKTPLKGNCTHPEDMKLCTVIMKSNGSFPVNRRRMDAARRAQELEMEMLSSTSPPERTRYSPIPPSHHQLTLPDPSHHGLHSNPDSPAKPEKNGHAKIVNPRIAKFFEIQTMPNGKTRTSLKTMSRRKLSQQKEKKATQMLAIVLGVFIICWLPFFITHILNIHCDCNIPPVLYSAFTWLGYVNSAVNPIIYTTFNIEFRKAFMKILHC
T1 sequence (Q9GJU1 whole entry): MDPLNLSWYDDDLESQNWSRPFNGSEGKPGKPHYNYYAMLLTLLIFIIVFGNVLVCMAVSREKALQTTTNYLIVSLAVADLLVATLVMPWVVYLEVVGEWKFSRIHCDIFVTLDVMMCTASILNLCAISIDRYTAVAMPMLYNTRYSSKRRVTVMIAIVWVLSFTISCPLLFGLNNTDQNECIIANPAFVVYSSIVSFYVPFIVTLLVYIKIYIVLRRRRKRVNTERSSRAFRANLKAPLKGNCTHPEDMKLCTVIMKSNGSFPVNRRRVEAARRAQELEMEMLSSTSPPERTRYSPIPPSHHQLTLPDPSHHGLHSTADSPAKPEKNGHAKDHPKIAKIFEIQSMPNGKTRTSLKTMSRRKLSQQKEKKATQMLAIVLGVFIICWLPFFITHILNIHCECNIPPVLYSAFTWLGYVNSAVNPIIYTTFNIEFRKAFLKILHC

Compound | Antidopaminergic activity: rat stereotype behaviour induced by apomorphine, ID50 ([3]; Table 1, ip) [mg/kg] | Antidopaminergic activity: rat stereotype behaviour induced by apomorphine, ID50 [3, 8] [mg/kg] | Stomach emptying index in the rat via oral route [1, 5] | Stomach emptying index in the rat via oral route [1, 6] | Antidopaminergic activity: dog emesis screen, ID50 ([2]; Table 1) [mg/kg] | Antidopaminergic activity: dog emesis screen, ID50 [2, 7] [mg/kg] | side effects associated with dopamine receptor blockade in some patients ([4]; in words, some patients) | side effects associated with dopamine receptor blockade in some patients ([4]; human, in vivo)
COc1cc(N)c(Cl)cc1C(=O)NC1CCN(Cc2ccccc2)CC1 [CLEBOPRIDE, N(1benzylpiperid-4-yl)-2-methoxy-4-amino-5-chlorobenzamide, reference compound] | 0.3 | 0.3 | 50.0 | 50.0 | 0.0096 | 0.0096 | extrapyramidal symptoms and hyperprolactinemia related side effects in some patients | –
CCCCOc1cc(N)c(Cl)cc1C(=O)NC1CCN(CC2OCCO2)CC1 [COMPOUND 66, N-[1-[2-(1,3-dioxolanyl)methyl]piperid-4-yl]-2-butoxy-4-amino-5-chlorobenzamide] | > 30.0 | – | 53.7 | – | > 1 | – | – | –
COc1cc(N)c(Cl)cc1C(=O)NC1CCN(Cc2cccs2)CC1 [COMPOUND A, reference compound] | – | 3 to 10 | – | 40.3 | – | 0.01 to 0.03 | – | –
COc1cc(N)c([N+](=O)[O-])cc1C(=O)NC1CCN(Cc2cccs2)CC1 [COMPOUND B, reference compound] | – | 10 to 30 | – | 17.7 | – | 0.03 to 0.1 | – | –
COc1cc(N)c(Cl)cc1C(=O)NC1CCN(Cc2ccccn2)CC1 [COMPOUND C, reference compound] | – | 10 to 30 | – | 25.0 | – | 0.03 to 0.1 | – | –
COc1cc(N)c(Cl)cc1C(=O)NC1CCN(Cc2ccco2)CC1 [COMPOUND D, reference compound] | – | 3 to 10 | – | 19.3 | – | 0.01 to 0.03 | – | –
CCN(CC)CCNC(=O)c1cc(Cl)c(N)cc1OC [METOCLOPRAMIDE, reference compound] | 5.4 | 5.4 | 24.7 | 24.7 | 0.0767 | 0.0767 | – | extrapyramidal symptoms and hyperprolactinemia related side effects in some patients

More lines, main results first:

Antidopaminergic activity: rat stereotype behaviour induced by apomorphine, ID50 ([3]; Table 1, ip) [mg/kg] | Antidopaminergic activity: rat stereotype behaviour induced by apomorphine, ID50 [3, 8] [mg/kg] | Compound | Stomach emptying index in the rat via oral route [1, 5] | Stomach emptying index in the rat via oral route [1, 6] | Antidopaminergic activity: dog emesis screen, ID50 ([2]; Table 1) [mg/kg] | Antidopaminergic activity: dog emesis screen, ID50 [2, 7] [mg/kg] | side effects associated with dopamine receptor blockade in some patients ([4]; in words, some patients) | side effects associated with dopamine receptor blockade in some patients ([4]; human, in vivo)
> 30.0 | – | CCCOc1cc(N)c(Cl)cc1C(=O)NC1CCN(CCCC2CCCO2)CC1 (centres unmarked) [COMPOUND 39] | 45.8 | – | > 1 | – | – | –
> 30.0 | – | CCCCOc1cc(N)c(Cl)cc1C(=O)NC1CCN(CC2CCCCO2)CC1 (centres unmarked) [COMPOUND 57] | 51.0 | – | > 1 | – | – | –
> 30.0 | – | CCCCOc1cc(N)c(Cl)cc1C(=O)NC1CCN(CC2OC(C)(C)C(C)(C)O2)CC1 [COMPOUND 91] | 54.9 | – | > 1 | – | – | –
> 30.0 | – | CCCCOc1cc(N)c(Cl)cc1C(=O)NC1CCN(CC2OC3CCCCC3O2)CC1 (centres unmarked) [COMPOUND 95] | 49.0 | – | > 1 | – | – | –
> 30.0 | – | COc1cc(N)c(Cl)cc1C(=O)NC1CCN(CC2COCO2)CC1 (centres unmarked) [COMPOUND 98] | 60.1 | – | > 1 | – | – | –
> 30.0 | – | CCCOc1cc(N)c(Cl)cc1C(=O)NC1CCN(CC2OCCCO2)CC1 [COMPOUND 108] | 51.0 | – | > 1 | – | – | –
> 30.0 | – | CCCCOc1cc(N)c(Cl)cc1C(=O)NC1CCN(CC2OCCCO2)CC1 [COMPOUND 109] | 61.3 | – | > 1 | – | – | –
> 30.0 | – | CCCCOc1cc(N)c(Cl)cc1C(=O)NC1CCN(CC2OCCCCO2)CC1 [COMPOUND 116] | 56.2 | – | > 1 | – | – | –

Reference: patent US4772618A, “Benzamides” (priority 1985, dated 1988)
